# Reference: patent US11247990B1, “Bicyclic fused pyridine compounds as inhibitors of TAM kinases” (ARRAY BIOPHARMA INC., priority 2017, dated 2022)
# Biological target: GST-tagged recombinant human TYRO3 kinase domain (Homo sapiens (Human), UniProt Q06418)
# Assay: TYRO3 Enzyme Assay (LanthaScreen Eu Kinase Binding, TR-FRET)
# Details: averaged IC50
# Experimental: Compounds of Formula I were screened for their ability to inhibit TYRO3 kinase using Invitrogen's LanthaScreen™ Eu Kinase Binding technology. […] After a 60-minute incubation at 22° C., the reaction was measured using a PerkinElmer EnVision multimode plate reader via TR-FRET dual wavelength detection, and the percent of control (POC) calculated using a ratiometric emission factor. […] The POC values were fit to a 4 parameter logistic curve and the IC50 value is point where the curve crosses 50 POC.
# Chain of GST-tagged recombinant human TYRO3 kinase domain (Q06418 518-790): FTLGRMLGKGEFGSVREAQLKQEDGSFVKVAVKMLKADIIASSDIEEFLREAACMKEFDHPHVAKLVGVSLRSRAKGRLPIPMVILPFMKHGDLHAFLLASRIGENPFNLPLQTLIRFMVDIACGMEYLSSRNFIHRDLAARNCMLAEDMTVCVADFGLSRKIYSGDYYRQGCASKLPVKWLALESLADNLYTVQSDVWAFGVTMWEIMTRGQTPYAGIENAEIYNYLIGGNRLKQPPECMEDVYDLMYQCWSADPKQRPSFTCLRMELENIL
row,IC50 [µM],SMILES
1,1 to 10,"CNc1cc2c(cn1)c(-c1cnn(C)c1)nn2[C@H]1CC[C@@H](Oc2ccc(=O)n(CC(C)C)n2)CC1 [Example 16, 2-isobutyl-6-(((1s,4s)-4-(3-(1-methyl-1H-pyrazol-4-yl)-6-(methylamino)-1H-pyrazolo[4,3-c]pyridin-1-yl)cyclohexyl)oxy)pyridazin-3(2H)-one]"
2,1 to 10,"CNc1cc2c(cn1)c(-c1cnn(C)c1)nn2[C@H]1CC[C@H](Oc2cccnn2)CC1 [Example 119, N-methyl-3-(1-methyl-1H-pyrazol-4-yl)-1-((1r,4r)-4-(pyridazin-3-yloxy)cyclohexyl)-1H-pyrazolo[4,3-c]pyridin-6-amine]"
3,1 to 10,"CCNc1cc2c(cn1)c(C1CCCCC1)nn2[C@H]1CC[C@@H](Oc2nccc(C(F)(F)F)c2F)CC1 [Example 322, 3-cyclohexyl-N-ethyl-1-((1s,4s)-4-((3-fluoro-4-(trifluoromethyl)pyridin-2-yl)oxy)cyclohexyl)-1H-pyrazolo[4,3-c]pyridin-6-amine]"
4,1 to 10,"CNc1cc2c(cn1)c(-c1ccc(F)cc1)nn2[C@H]1CC[C@@H](Oc2ccccn2)CC1 [Example 118, 3-(4-fluorophenyl)-N-methyl-1-((1s,4s)-4-(pyridin-2-yloxy)cyclohexyl)-1H-pyrazolo[4,3-c]pyridin-6-amine]"
5,1 to 10,"CNc1cc2c(cn1)c(-c1cnn(C)c1)nn2[C@H]1CC[C@@H](Oc2ccc(OC)nn2)CC1 [Example 123, 1-((1s,4s)-4-((6-methoxypyridazin-3-yl)oxy)cyclohexyl)-N-methyl-3-(1-methyl-1H-pyrazol-4-yl)-1H-pyrazolo[4,3-c]pyridin-6-amine]"
6,1 to 10,"CCNc1cc2c(cn1)c(-c1cnn(C(C)(C)C#N)c1)nn2[C@H]1CC[C@@H](Oc2ccc(=O)n(CC)n2)CC1 [Example 57, 2-(4-(1-((1s,4s)-4-((1-ethyl-6-oxo-1,6-dihydropyridazin-3-yl)oxy)cyclohexyl)-6-(ethylamino)-1H-pyrazolo[4,3-c]pyridin-3-yl)-1H-pyrazol-1-yl)-2-methylpropanenitrile]"
7,1 to 10,"CNc1cc2c(cn1)c(-c1cnn(C)c1)nn2[C@H]1CC[C@@H](Oc2nn(C)c(=O)cc2C)CC1 [Example 6, 2,5-dimethyl-6-(((1s,4s)-4-(3-(1-methyl-1H-pyrazol-4-yl)-6-(methylamino)-1H-pyrazolo[4,3-c]pyridin-1-yl)cyclohexyl)oxy)pyridazin-3(2H)-one]"
8,1 to 10,"CNc1cc2c(cn1)c(-c1cnn(C)c1)nn2[C@H]1CC[C@@H](Oc2cccnc2C(=O)N(C)C)CC1 [Example 277, N,N-dimethyl-3-(((1s,4s)-4-(3-(1-methyl-1H-pyrazol-4-yl)-6-(methylamino)-1H-pyrazolo[4,3-c]pyridin-1-yl)cyclohexyl)oxy)picolinamide]"
9,1 to 10,"CNc1cc2c(cn1)c(-c1cnn(C)c1)nn2[C@H]1CC[C@@H](Oc2cccc(C(F)(F)F)n2)CC1 [Example 174, N-methyl-3-(1-methyl-1H-pyrazol-4-yl)-1-((1s,4s)-4-((6-(trifluoromethyl)pyridin-2-yl)oxy)cyclohexyl)-1H-pyrazolo[4,3-c]pyridin-6-amine]"
10,1 to 10,"CNc1cc2c(cn1)c(-c1cnn(C)c1)nn2[C@H]1CC[C@@H](Oc2ccc(=O)n(Cc3ccc(OC)cc3)n2)CC1 [Example 20, 2-(4-methoxybenzyl)-6-(((1s,4s)-4-(3-(1-methyl-1H-pyrazol-4-yl)-6-(methylamino)-1H-pyrazolo[4,3-c]pyridin-1-yl)cyclohexyl)oxy)pyridazin-3(2H)-one]"

# Continued, compound first:
row,SMILES,IC50 [µM]
1,"CCCNc1cc2c(cn1)c(-c1cnn(C)c1)nn2[C@H]1CC[C@@H](Oc2ccccc2F)CC1 [Example 405, 1-((1s,4s)-4-(2-fluorophenoxy)cyclohexyl)-3-(1-methyl-1H-pyrazol-4-yl)-N-propyl-1H-pyrazolo[4,3-c]pyridin-6-amine]",< 0.01
2,"CCNc1cc2c(cn1)c(-c1cnn(C)c1)nn2[C@H]1CC[C@@H](Oc2ccc(=O)n(CCOC)n2)CC1 [Example 13, 6-(((1s,4s)-4-(6-(ethylamino)-3-(1-methyl-1H-pyrazol-4-yl)-1H-pyrazolo[4,3-c]pyridin-1-yl)cyclohexyl)oxy)-2-(2-methoxyethyl)pyridazin-3(2H)-one]",1 to 10
3,"CNc1cc2c(cn1)c(-c1cnn(C)c1)nn2[C@H]1CC[C@@H](Oc2ccc(OCc3ccccc3)nc2)CC1 [Example 131, 1-((1s,4s)-4-((6-(benzyloxy)pyridin-3-yl)oxy)cyclohexyl)-N-methyl-3-(1-methyl-1H-pyrazol-4-yl)-1H-pyrazolo[4,3-c]pyrdin-6-amine]",1 to 10
4,"CNc1cc2c(cn1)c(-c1cnn(C)c1)nn2[C@H]1CC[C@@H](Oc2cncnc2)CC1 [Example 141, N-methyl-3-(1-methyl-1H-pyrazol-4-yl)-1-((1s,4s)-4-(pyrimidin-5-yloxy)cyclohexyl)-1H-pyrazolo[4,3-c]pyridin-6-amine]",1 to 10
5,"CNC(=O)c1ncccc1O[C@H]1CC[C@@H](n2nc(-c3cnn(C)c3)c3cnc(NC)cc32)CC1 [Example 276, N-methyl-3-(((1s,4s)-4-(3-(1-methyl-1H-pyrazol-4-yl)-6-(methylamino)-1H-pyrazolo[4,3-c]pyridin-1-yl)cyclohexyl)oxy)picolinamide]",1 to 10
6,"CCNc1cc2c(cn1)c(-c1ccc(CN3CC(F)C3)cc1)nn2[C@H]1CC[C@@H](Oc2ccc(=O)n(C)n2)CC1 [Example 62, 6-(((1s,4s)-4-(6-(ethylamino)-3-(4-((3-fluoroazetidin-1-yl)methyl)phenyl)-1H-pyrazolo[4,3-c]pyridin-1-yl)cyclohexyl)oxy)-2-methylpyridazin-3(2H)-one]",1 to 10
7,"CCNc1cc2c(cn1)c(C1CCCC1)nn2[C@H]1CC[C@@H](Oc2nccc(C(F)(F)F)c2F)CC1 [Example 321, 3-cyclopentyl-N-ethyl-1-((1s,4s)-4-((3-fluoro-4-(trifluoromethyl)pyridin-2-l)oxy)cyclohexyl)-1H-pyrazolo[4,3-c]pyridin-6-amine]",1 to 10
8,"CNc1cc2c(cn1)c(-c1cncc(C(F)(F)F)c1)nn2[C@H]1CC[C@@H](Oc2ccc(=O)n(C)n2)CC1 [Example 52, 2-methyl-6-(((1s,4s)-4-(6-(methylamino)-3-(5-(trifluoromethyl)pyridin-3-yl)-1H-pyrazolo[4,3-c]pyridin-1-yl)cyclohexyl)oxy)pyridazin-3(2H)-one]",1 to 10
9,"CNc1cc2c(cn1)c(-c1cnn(C)c1)nn2[C@H]1CC[C@@H](Oc2ccc(=O)n(CCOC)n2)CC1 [Example 17, 2-(2-methoxyethyl)-6-(((1s,4s)-4-(3-(1-methyl-1H-pyrazol-4-yl)-6-(methylamino)-1H-pyrazolo[4,3-c]pyridin-1-yl)cyclohexyl)oxy)pyridazin-3(2H)-one]",1 to 10
10,"CNc1cc2c(cn1)c(-c1cnn(C)c1)nn2[C@H]1CC[C@@H](Oc2cccc(OCC(F)(F)F)n2)CC1 [Example 302, N-methyl-3-(1-methyl-1H-pyrazol-4-yl)-1-((1s,4s)-4-((6-(2,2,2-trifluoroethoxy)pyridin-2-yl)oxy)cyclohexyl)-1H-pyrazolo[4,3-c]pyridin-6-amine]",1 to 10
11,"CNc1cc2c(cn1)c(-c1cnn(C)c1)nn2[C@H]1CC[C@@H](Oc2ccc(OC)nc2)CC1 [Example 130, 1-((1s,4s)-4-((6-methoxypyridin-3-yl)oxy)cyclohexyl)-N-methyl-3-(1-methyl-1H-pyrazol-4-yl)-1H-pyrazolo[4,3-c]pyridin-6-amine]",1 to 10
12,"Cn1cc(-c2nn([C@H]3CC[C@@H](Oc4cn(C)nc4C(F)(F)F)CC3)c3cc(Nc4ccccc4)ncc23)cn1 [Example 303, 3-(1-methyl-1H-pyrazol-4-yl)-1-((1s,4s)-4-((1-methyl-3-(trifluoromethyl)-1H-pyrazol-4-yl)oxy)cyclohexyl)-N-phenyl-1H-pyrazolo[4,3-c]pyridin-6-amine]",< 0.01
13,"CNc1cc2c(cn1)c(-c1cnc(N3CCOCC3)nc1)nn2[C@H]1CC[C@@H](Oc2ccc(=O)n(C)n2)CC1 [Example 51, 2-methyl-6-(((1s,4s)-4-(6-(methylamino)-3-(2-morpholinopyrimidin-5-yl)-1H-pyrazolo[4,3-c]pyridin-1-yl)cyclohexyl)oxy)pyridazin-3(2H)-one]",1 to 10
14,"CNc1cc2c(cn1)c(-c1cnn(C)c1)nn2C1CCC(Oc2cc(N(C)C)cnn2)CC1 (stereo not drawn) [Example 154, 1-((1s,4s)-4-((5-(dimethylamino)pyridazin-3-yl)oxy)cyclohexyl)-N-methyl-3-(1-methyl-1H-pyrazol-4-yl)-1H-pyrazolo[4,3-c]pyridin-6-amine]",1 to 10
15,"CNc1cc2c(cn1)c(-c1cnn(C)c1)nn2[C@H]1CC[C@@H](Oc2cc(=O)cnn2C)CC1 [Example 114, 1-methyl-6-(((1s,4s)-4-(3-(1-methyl-1H-pyrazol-4-yl)-6-(methylamino)-1H-pyrazolo[4,3-c]pyridin-1-yl)cyclohexyl)oxy)pyridazin-4(1H)-one]",1 to 10
16,Cn1cc(-c2nn([C@H]3CC[C@@H](Oc4ccc(=O)n(C)n4)CC3)c3cc(Nc4cccc(F)c4)ncc23)cn1 [Example 66],< 0.01
17,"CCNc1cc2c(cn1)c(-c1cnn(C)c1)nn2[C@H]1CC[C@H](Oc2cccc(F)c2)CC1 [Example 475, N-ethyl-1-((1r,4r)-4-(3-fluorophenoxy)cyclohexyl)-3-(1-methyl-1H-pyrazol-4-yl)-1H-pyrazolo[4,3-c]pyridin-6-amine]",1 to 10
18,CNc1cc2c(cn1)c(-c1cnn(C)c1)nn2[C@H]1CC[C@@H](Oc2cccc(C(=O)N(C)C)c2)CC1 [Example 454],1 to 10
19,"CNc1cc2c(cn1)c(-c1cnn(C)c1)nn2[C@H]1CC[C@@H](Oc2cccnn2)CC1 [Example 120, N-methyl-3-(1-methyl-1H-pyrazol-4-yl)-1-((1s,4s)-4-(pyridazin-3-yloxy)cyclohexyl)-1H-pyrazolo[4,3-c]pyridin-6-amine]",1 to 10
20,"CNc1cc2c(cn1)c(-c1cnn(C)c1)nn2[C@H]1CC[C@@H](Oc2nc(C)ncc2OC)CC1 [Example 176, 1-((1s,4s)-4-((5-methoxy-2-methylpyrimidin-4-yl)oxy)cyclohexyl)-N-methyl-3-(1-methyl-1H-pyrazol-4-yl)-1H-pyrazolo[4,3-c]pyridin-6-amine]",1 to 10
